By Ki is commonly meant a measure of affinity in units of concentration, obtained from inhibition or displacement.

Molecules are shown by their SMILES.

This assay deals with T1, Equilibrative nucleoside transporter 1 (Homo sapiens, UniProt Q99808).
T1 sequence (Q99808 whole entry): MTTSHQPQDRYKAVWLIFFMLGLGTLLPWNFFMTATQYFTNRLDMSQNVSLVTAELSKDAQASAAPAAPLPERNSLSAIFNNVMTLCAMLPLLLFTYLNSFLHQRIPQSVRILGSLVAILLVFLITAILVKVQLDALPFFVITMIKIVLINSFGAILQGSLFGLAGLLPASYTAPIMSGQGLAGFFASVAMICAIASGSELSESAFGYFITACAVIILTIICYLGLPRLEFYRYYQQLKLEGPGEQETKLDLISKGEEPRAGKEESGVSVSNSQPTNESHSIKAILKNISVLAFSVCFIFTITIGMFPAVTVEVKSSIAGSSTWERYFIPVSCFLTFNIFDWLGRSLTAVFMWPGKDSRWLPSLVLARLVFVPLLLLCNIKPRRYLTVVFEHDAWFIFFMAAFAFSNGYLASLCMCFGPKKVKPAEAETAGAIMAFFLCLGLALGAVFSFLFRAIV
Kind of assay: Inhibition of human ENT1.
On to `OC[C@H]1O[C@@H](n2cnc3c(SCc4ccc(Cl)cc4)ncnc32)[C@H](O)[C@@H]1O`, for which the Ki was 14.8 nM. With `OC[C@H]1O[C@@H](n2cnc3c(SCc4ccccc4Br)ncnc32)[C@H](O)[C@@H]1O`, affinity was put at a Ki of 151 nM. With `OC[C@H]1O[C@@H](n2cnc3c(SCc4c(F)cccc4Cl)ncnc32)[C@H](O)[C@@H]1O` the figure was 87.1 nM; with `N#Cc1ccc(CSc2ncnc3c2ncn3[C@@H]2O[C@H](CO)[C@@H](O)[C@H]2O)cc1`, 4.57 nM; with `OC[C@H]1O[C@@H](n2cnc3c(SCc4cccc(C(F)(F)F)c4)ncnc32)[C@H](O)[C@@H]1O`, 19.1 nM. The value for `Cc1ccc(CSc2ncnc3c2ncn3[C@@H]2O[C@H](CO)[C@@H](O)[C@H]2O)cc1` was 15.1 nM; that for `O=[N+]([O-])c1ccccc1CSc1ncnc2c1ncn2[C@@H]1O[C@H](CO)[C@@H](O)[C@H]1O` was 115 nM; that for `Cc1cccc(CSc2ncnc3c2ncn3[C@@H]2O[C@H](CO)[C@@H](O)[C@H]2O)c1` was 16.2 nM. With `COc1ccc(CSc2ncnc3c2ncn3[C@@H]2O[C@H](CO)[C@@H](O)[C@H]2O)cc1` the figure was 34.7 nM. The molecule `CC(C)(C)c1ccc(CSc2ncnc3c2ncn3[C@@H]2O[C@H](CO)[C@@H](O)[C@H]2O)cc1` showed a Ki of 10000 nM. For `OC[C@H]1O[C@@H](n2cnc3c(SCc4ccc(Cl)cc4Cl)ncnc32)[C@H](O)[C@@H]1O`, the Ki is 4.37 nM.

Molecule `O=[N+]([O-])c1cccc(CSc2ncnc3c2ncn3[C@@H]2O[C@H](CO)[C@@H](O)[C@H]2O)c1` had a Ki of 1.78 nM.

`N#Cc1ccccc1CSc1ncnc2c1ncn2[C@@H]1O[C@H](CO)[C@@H](O)[C@H]1O` gave a Ki of 38.9 nM. `OC[C@H]1O[C@@H](n2cnc3c(SCc4ccc(Br)cc4)ncnc32)[C@H](O)[C@@H]1O` gave a Ki of 11.5 nM. `OC[C@H]1O[C@@H](n2cnc3c(SCc4ccccc4F)ncnc32)[C@H](O)[C@@H]1O` showed an inhibition constant (Ki) of 24 nM.

As to `OC[C@H]1O[C@@H](n2cnc3c(SCc4ccc(Cl)c(Cl)c4)ncnc32)[C@H](O)[C@@H]1O`, the Ki was 12.6 nM. For `OC[C@H]1O[C@@H](n2cnc3c(SCc4ccc(I)cc4)ncnc32)[C@H](O)[C@@H]1O`, the affinity corresponds to a Ki of 3.8 nM. In the case of `COC(=O)c1ccc(CSc2ncnc3c2ncn3[C@@H]2O[C@H](CO)[C@@H](O)[C@H]2O)cc1`, the affinity, expressed as Ki, was 46.8 nM. Turning to `Cc1cc(C)c(CSc2ncnc3c2ncn3[C@@H]2O[C@H](CO)[C@@H](O)[C@H]2O)c(C)c1`, the Ki was 1910 nM. With `OC[C@H]1O[C@@H](n2cnc3c(SCc4cccc(F)c4)ncnc32)[C@H](O)[C@@H]1O` the figure was 12.9 nM. For `OC[C@H]1O[C@@H](n2cnc3c(SCc4ccccc4)ncnc32)[C@H](O)[C@@H]1O` [6-BENZYLTHIOINOSINE], the affinity, expressed as Ki, was 20 nM. The value for `OC[C@H]1O[C@@H](n2cnc3c(SCc4cccc(Br)c4)ncnc32)[C@H](O)[C@@H]1O` was 20.9 nM; that for `OC[C@H]1O[C@@H](n2cnc3c(SCc4ccccc4I)ncnc32)[C@H](O)[C@@H]1O` was 19.5 nM. The value for `OC[C@H]1O[C@@H](n2cnc3c(SCc4cccc(Cl)c4)ncnc32)[C@H](O)[C@@H]1O` was 18.2 nM; that for `N#Cc1cccc(CSc2ncnc3c2ncn3[C@@H]2O[C@H](CO)[C@@H](O)[C@H]2O)c1` was 36.3 nM; that for `OC[C@H]1O[C@@H](n2cnc3c(SCc4ccccc4Cl)ncnc32)[C@H](O)[C@@H]1O` was 117 nM. The value for `OC[C@H]1O[C@@H](n2cnc3c(SCc4ccc(OC(F)(F)F)cc4)ncnc32)[C@H](O)[C@@H]1O` was 7.08 nM; that for `Cc1ccccc1CSc1ncnc2c1ncn2[C@@H]1O[C@H](CO)[C@@H](O)[C@H]1O` was 67.6 nM.

The values are drawn from ChEMBL document CHEMBL1149083, “CoMFA and CoMSIA 3D-QSAR studies on S(6)-(4-nitrobenzyl)mercaptopurine riboside (NBMPR) analogs as inhibitors of human equilibrative nucleoside transporter 1 (hENT1)” (Bioorg Med Chem Lett, 2009).
